Results from patent US20120157500A1, “JAK INHIBITION BLOCKS RNA INTERFERENCE ASSOCIATED TOXICITIES” (priority 2009, published 2012).

How the values were obtained:
[1] = test system: LF01-SSB-induced lethality and visible hematuria; assay: Suppression of LF01-SSB-induced lethality and visible hematuria by inhibitors; format: in vivo; settings: rats; for Rescue effect: Death, +inhibitor/−inhibitor / Rescue effect: Red urine, +inhibitor/−inhibitor: inhibitor 1 hr prior to LF01-SSB 9 mg/kg IV, animals with inhibitor/without inhibitor; for Rescue effect: Death, +inhibitor/−inhibitor: deaths until 96 hr; for Rescue effect: Red urine, +inhibitor/−inhibitor: urine collected over 24 hr
From the text: Since LF01-siRNA nanoparticles provoked lethality and multifactorial toxicities involving different systems in rats, this offers an in vivo model for pharmacologically probing the mechanism that triggers LF01-siRNA toxicities. We first evaluated the suppression of LF01-SSB-induced lethality and visible hematuria by anti-inflammation drugs and pathway-specific inhibitors of the innate immune system as shown in Table 1. […] Rats were pre-dosed with either a vehicle or one of these reagents using the dosing regimen listed in Table 1, followed by an IV dose of LF01-SSB at 9 mpk 1 hr later, and animals were monitored for lethality for 96 hr. In addition, urine was collected over the course of 24 hr for visual observation of hematuria.
Rats were dosed with PBS or one of these inhibitors 1 hr prior to IV administration of PBS or […] at 9 mg/kg. Urine samples were collected over a course of 24 hr for visual examination of hematuria (red urine). Animals were monitored for lethality until 96 hr post LF01-SSB dose. Unscheduled deaths and cases of visible hematuria in animals receiving LF01-SSB with or without inhibitor pretreatment were scored and presented.
(§1) Rat studies. All animal studies were conducted at AAALAC-accredited Merck Research laboratories' animal facility located at West Point, Pa., and all study protocols were approved by Merck West Point Institutional Animal Care and Use Committee (IACUC). Female Sprague-Dawley (SD) rats obtained from Charles River were used in these studies at an age of 4-6 weeks and with a body weight of 120-160 grams. Anti-inflammation agents were administrated using the dosing regimens listed in Table 1, 1 hr prior to tail vein injection of liposomal siRNA nanoparticles in PBS in a volume of 0.8 ml under normal pressure. At 3 hr post injection of liposomal siRNA, ˜0.2 ml blood was collected by retro-orbital bleed under anesthesia and processed as plasma for the assessment of cytokines. At 24 hr, blood was collected for evaluation of complete blood cell counts (CBC), coagulation parameters and serum chemistry by venipuncture under anesthesia followed by exsanguination, and tissues from liver, spleen and kidney were collected for determination of SSB and ApoB mRNA levels and TUNEL analysis. For visual examination of urine color, rats were housed in metabolic cages to collect urine over a course of 24 hours after injection of liposomal siRNA nanoparticles. Animals were examined 3 times a day for detection of lethality over a course of 96 hours.

[2] = test system: LF01-SSB-induced toxicities; assay: LF01-SSB-induced toxicities in rats with or without inhibitor pretreatment; format: in vivo; settings: for suppression of cytokine release, elevation of serum transaminases, thrombocytopenia or coagulopathy induced by LF01-SSB: pretreatment before LF01-SSB 3 mg/kg
Procedure: as §1, with “At 24 hr, blood was collected for evaluation of complete blood cell counts (CBC), coagulation parameters and serum chemistry by venipuncture under anesthesia followed by exsanguination, and tissues from liver, spleen and kidney were collected for determination of SSB and ApoB mRNA levels and TUNEL analysis.” left out
Analyses of rat blood samples. Cytokines in plasma were quantified using a microsphere bead-based, multiplexed assay, Milliplex™ RCYTO-80K-PMX23 (Millipore) which allows simultaneous quantification of 23 rat cytokines including IFNγ, IL-6, MCP-1 and TNFα. All CBC, coagulation and serum chemistry parameters were analyzed by Merck Laboratory of Animal Resources and the Safety Assessment Department at West Point, Pa. CBC was determined on whole blood placed in an EDTA-treated tube using an Advia 120 Hematology Analyzer (Siemens). Coagulation parameters in citrated plasma were assessed with a Behring Coagulation System (Siemens) and serum chemistry evaluation was conducted with an Advia 1800 Clinical Chemistry Analyzer (Siemens).
TUNEL (Terminal deoxynucleotidyl transferase-mediated dUTP-biotin Nick End Labeling). TUNEL staining in tissue sections was performed using a ‘TACS™ TdT-Blue Label in Situ Apoptosis Detection Kit’ (Trevigen). Briefly, 5 μm paraffin embedded sections of liver tissue were deparaffinized, fixed, labeled, and counterstained according to the manufacturer's recommendations. In Situ labeling procedure includes extension of 3′ ends with Biotin-dNTP (TdT Labeling Rxn), followed by additions of Strep-HRP and “TACS-Blue” Label or DAB for color development. TUNEL signal was quantified using the Arial system (Applied Imaging). Quantification of mRNA. qRT-PCR assays were used to quantify SSB and ApoB mRNA levels relative to the housekeeping gene Ppib in lysates prepared from tissues using kits from Applied Biosystems. The catalog numbers are Rn0057621_g1 for SSB, Rn01499054_m1 for ApoB and Rn03302274_m1 for Ppib.

[3] = biological target: T1, IKK2 (Homo sapiens, UniProt O14920); settings: Table 1, from former studies; cited from earlier work
T1 sequence (O14920 1-756): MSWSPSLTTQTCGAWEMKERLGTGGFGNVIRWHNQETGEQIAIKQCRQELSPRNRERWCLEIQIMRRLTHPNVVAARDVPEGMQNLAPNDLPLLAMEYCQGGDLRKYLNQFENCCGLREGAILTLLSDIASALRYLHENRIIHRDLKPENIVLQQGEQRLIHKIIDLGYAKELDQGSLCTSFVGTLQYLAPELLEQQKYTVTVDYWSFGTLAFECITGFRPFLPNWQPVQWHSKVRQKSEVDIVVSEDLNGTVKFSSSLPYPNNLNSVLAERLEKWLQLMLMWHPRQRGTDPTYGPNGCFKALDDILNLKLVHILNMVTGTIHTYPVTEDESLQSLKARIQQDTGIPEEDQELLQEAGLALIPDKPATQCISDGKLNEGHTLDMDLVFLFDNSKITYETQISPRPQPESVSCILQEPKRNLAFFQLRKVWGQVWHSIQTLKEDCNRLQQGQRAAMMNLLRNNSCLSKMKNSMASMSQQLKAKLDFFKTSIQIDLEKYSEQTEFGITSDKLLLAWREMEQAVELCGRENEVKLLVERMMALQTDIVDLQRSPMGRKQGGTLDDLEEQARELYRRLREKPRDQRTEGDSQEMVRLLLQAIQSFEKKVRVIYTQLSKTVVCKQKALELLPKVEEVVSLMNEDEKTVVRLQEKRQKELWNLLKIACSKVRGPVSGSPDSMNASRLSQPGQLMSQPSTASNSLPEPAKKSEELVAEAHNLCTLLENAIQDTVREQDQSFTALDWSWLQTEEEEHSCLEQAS

[4] = biological target: T2, IKK1 (Homo sapiens, UniProt O15111); settings: Table 1, from former studies; cited from earlier work
T2 sequence (O15111 1-745): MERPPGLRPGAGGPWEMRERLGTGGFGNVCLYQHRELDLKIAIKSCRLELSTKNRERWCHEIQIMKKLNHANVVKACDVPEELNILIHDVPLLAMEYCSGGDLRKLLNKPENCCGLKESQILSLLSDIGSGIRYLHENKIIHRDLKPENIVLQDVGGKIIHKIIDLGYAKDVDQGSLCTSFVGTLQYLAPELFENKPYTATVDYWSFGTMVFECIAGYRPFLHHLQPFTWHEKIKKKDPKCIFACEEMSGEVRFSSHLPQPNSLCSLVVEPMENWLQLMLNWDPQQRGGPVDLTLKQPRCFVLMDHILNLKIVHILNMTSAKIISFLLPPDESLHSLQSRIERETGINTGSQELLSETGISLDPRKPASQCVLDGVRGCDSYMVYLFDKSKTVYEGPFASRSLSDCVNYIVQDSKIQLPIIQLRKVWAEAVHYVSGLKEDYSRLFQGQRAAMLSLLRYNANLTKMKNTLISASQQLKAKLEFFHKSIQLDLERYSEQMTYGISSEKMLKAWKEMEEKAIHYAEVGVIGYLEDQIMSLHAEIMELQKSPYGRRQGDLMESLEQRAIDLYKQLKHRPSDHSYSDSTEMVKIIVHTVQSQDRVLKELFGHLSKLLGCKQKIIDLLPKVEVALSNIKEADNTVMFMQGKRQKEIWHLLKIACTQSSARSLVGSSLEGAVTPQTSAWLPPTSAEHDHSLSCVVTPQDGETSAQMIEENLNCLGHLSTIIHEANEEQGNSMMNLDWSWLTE

SMILES | effect on LF01-SSB-induced lethality and visible hematuria ([1]; pre-dosed 1 hr before LF01-SSB 9 mpk IV, monitored 96 hr) | Rescue effect: Death, +inhibitor/−inhibitor [1] | Rescue effect: Red urine, +inhibitor/−inhibitor [1] | effect on LF01-SSB toxic responses (cytokine induction, ALT and AST elevation, thrombocytopenia, elongation of aPTT, hepatic and splenic cell death) ([2]; rat, in vivo) | suppression of cytokine release, elevation of serum transaminases, thrombocytopenia or coagulopathy induced by LF01-SSB ([2]; rats) | effect on LF01-SSB-induced coagulopathy (elongation of aPTT) ([2]; rat, in vivo) | effect on LF01-siRNA induction of IL-6 ([2]; rats, plasma 3 hr post LF01-SSB dose) | IC50 [3] [nM] | IC50 [4] [nM] | effect on LF01-SSB-induced coagulopathy (elongation of aPTT) ([2]; rats, pre-dosed 1 hr prior to LF01-SSB 3 mg/kg IV, 24 hr)
C[C@@H]1CCN(C(=O)CC#N)C[C@@H]1N(C)c1ncnc2[nH]ccc12 [CP-690550] | prevented | 0/4 | 0/4 | suppression of toxic responses | – | – | – | – | – | –
N=C(N)NN [Aminoguanidine] | – | 4/3 | 2/3 | – | no appreciable suppression | – | – | – | – | –
C[S+]([O-])c1ccc(-c2nc(-c3ccncc3)c(-c3ccc(F)cc3)[nH]2)cc1 (stereo not shown) [SB-203580] | – | 2/5 | 2/5 | – | – | no mitigation effect | abrogated | – | – | –
Cc1ccc(-c2ncc(Cl)cc2-c2ccc(S(C)(=O)=O)cc2)cn1 [Etoricoxib] | – | 4/3 | 4/4 | – | no appreciable suppression | – | – | – | – | –
N.S=C(S)N1CCCC1 [PDTC] | – | 4/5 | 3/5 | – | – | – | – | 20 | 400 | no mitigation effect
